Data: PubChem BioAssay (NCI)
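96-well plates; 48 h exposure; 5 concentrations. Endpoints by linear interpolation between flanking doses. Not reached: highest tested concentration assigned. GI50: concentration for 50% inhibition of growth. The concentration for full growth arrest is given as TGI.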

Key:
Assay in all cases: NCI anticancer screen, dose series, 48 h
SK-MEL-5 melanoma = tested on: SK-MEL-5 melanoma
SW-620 colon = tested on: SW-620 colon
HCT-15 colon = tested on: HCT-15 colon
HOP-62 NSCLC = tested on: HOP-62 NSCLC
MOLT-4 leukemia = tested on: MOLT-4 leukemia
U251 CNS = tested on: U251 CNS
LOX IMVI melanoma = tested on: LOX IMVI melanoma
RPMI-8226 leukemia = tested on: RPMI-8226 leukemia
CCRF-CEM leukemia = tested on: CCRF-CEM leukemia
SNB-75 CNS = tested on: SNB-75 CNS

Structure (SMILES) | TGI (SK-MEL-5 melanoma) | TGI (SW-620 colon) | TGI (HCT-15 colon) | TGI (HOP-62 NSCLC) | TGI (MOLT-4 leukemia) | TGI (U251 CNS) | TGI (LOX IMVI melanoma) | TGI (RPMI-8226 leukemia) | TGI (CCRF-CEM leukemia) | GI50 (SNB-75 CNS) | TGI (SNB-75 CNS) | GI50 (SK-MEL-5 melanoma) | GI50 (SW-620 colon) | GI50 (HCT-15 colon) | GI50 (HOP-62 NSCLC) | GI50 (MOLT-4 leukemia) | GI50 (U251 CNS) | GI50 (LOX IMVI melanoma) | GI50 (RPMI-8226 leukemia) | GI50 (CCRF-CEM leukemia)
Cc1cccc(N2C(=O)C3c4[nH]c5ccc(C)cc5c4C4CCC(C(C)(C)C)CC4C3C2=O)c1 (centres undefined) | > 100 µM | 59.6 µM | > 100 µM | 30.9 µM | 29.7 µM | 62.3 µM | 43.7 µM | 41.1 µM | 68 µM |  |  |  |  |  |  |  |  |  |  | 
CCCCCCCCCCCCCC[n+]1ccc(C)cc1 | 1.81 µM | 3.88 µM | 22.4 µM | 2.61 µM | 2.65 µM | 1.65 µM | 1.36 µM | 2.37 µM | 5.11 µM | 0.806 µM | 2.37 µM | 0.548 µM | 0.945 µM | 4.01 µM | 1.27 µM | 0.689 µM | 0.437 µM | 0.35 µM | 0.426 µM | 0.818 µM
CCCCOP(C)(=O)C(NC(=O)OCC)(C(F)(F)F)C(F)(F)F (centres undefined) | > 100 µM | > 100 µM | > 100 µM | > 100 µM | > 100 µM | > 100 µM | > 100 µM | > 100 µM | > 100 µM |  | > 100 µM |  |  |  |  |  |  |  |  | 
C=C1C(=O)OC2CC(C)C3C4OC4C(O)C3(C)C(O)C12 (centres undefined) | 87.1 µM | 54.6 µM | 77.6 µM | 127 µM | 41.8 µM | 96.6 µM | 65.3 µM | 51.1 µM | 56 µM |  | 92.1 µM |  |  |  |  |  |  |  |  | 
CSc1nc(N)c2c(-c3ccccc3)c3c(nc2n1)CCCC3 | > 100 µM | > 100 µM | > 100 µM | > 100 µM | > 100 µM | > 100 µM | > 100 µM | > 100 µM | > 100 µM |  | > 100 µM |  |  |  |  |  |  |  |  | 
COc1ccc(-c2c(-c3ccccc3)c(C)nc3nc(SC)nc(SC)c23)cc1OC | 27.8 µM | > 100 µM | > 100 µM | 40.5 µM | 71.3 µM | 28.3 µM | 33.2 µM | 26.1 µM | 23.5 µM |  | > 100 µM |  |  |  |  |  |  |  |  | 
Clc1ccc(C[P+](c2ccccc2)(c2ccccc2)c2ccccc2)cc1Cl | 2.78 µM | 12.7 µM | 44.5 µM | 21.2 µM |  | 10.6 µM | 11.7 µM |  | 28.3 µM |  | 5.1 µM |  |  |  |  |  |  |  |  | 
C/C(N=NS(=O)(=O)c1ccc([N+](=O)[O-])cc1)=C1\C=CC=CN1O | > 100 µM | > 100 µM | > 100 µM | > 100 µM | > 100 µM | > 100 µM |  | > 100 µM | > 100 µM |  | > 100 µM |  |  |  |  |  |  |  |  | 
O=C1/C(=C/c2ccc(O)cc2)COc2ccc(O)c(O)c21 | 4.01 µM | 5.36 µM | 4.07 µM | > 100 µM | > 100 µM | 13.9 µM | 3.22 µM | 3.68 µM | 8.53 µM | 1.78 µM | > 100 µM | 1.81 µM | 2.11 µM | 1.31 µM | 3.98 µM | 1.99 µM | 2.62 µM | 1.47 µM | 0.499 µM | 0.652 µM
C/C(=N\O)c1cccc[n+]1Cc1ccccc1 | > 100 µM | > 100 µM | > 100 µM | > 100 µM | > 100 µM | > 100 µM | > 100 µM | > 100 µM | > 100 µM |  | > 100 µM |  |  |  |  |  |  |  |  | 
CC(C)c1ccccc1SCc1cc(=O)cc(CSc2ccccc2C(C)C)o1 | > 100 µM | 81.2 µM | 94.3 µM | 43.6 µM | 93.3 µM | 86.8 µM | 84.4 µM | > 100 µM | 95.6 µM |  | 36.5 µM |  |  |  |  |  |  |  |  | 
CC12CCC(CC1)C(C)(C)O2 | 21.8 µM | 89.7 µM | 71.8 µM | 52.2 µM | 77.2 µM | 112 µM | 48.7 µM | 173 µM | 201 µM |  | 115 µM |  | 9.09 µM |  |  |  |  |  |  | 35.8 µM
O=C(O)/C=C/c1c[nH]c(=O)[nH]c1=O | > 500 µM | > 500 µM | > 500 µM | > 250 µM | > 281 µM | > 500 µM | > 500 µM | > 500 µM | > 316 µM |  | > 500 µM |  |  |  | > 250 µM |  |  |  |  | 
